# In the OPERA property sets (Mansouri et al. 2018):
row,logP,Structure (SMILES)
1,2.45,CC(C(=O)O)c1ccc(-c2nccs2)c(N)c1 (stereo unspecified)
2,2.47,COc1cc(C(C)C(=O)O)ccc1-c1nccs1 (stereo unspecified)
3,4.62,CCc1nc(-c2ccc(C(C)C(=O)O)cc2Cl)sc1C (stereo unspecified)
4,3.74,Cc1nc(-c2ccc(C(C)C(=O)O)cc2F)sc1C (stereo unspecified)
5,3.35,CC(C(=O)O)c1ccc(-c2nccs2)c(Br)c1 (stereo unspecified)
6,3.02,CSc1cc(C(C)C(=O)O)ccc1-c1nccs1 (stereo unspecified)
7,3.52,Cc1csc(-c2ccc(C(C)C(=O)O)cc2F)n1 (stereo unspecified)
8,3.55,Cc1cnc(-c2ccc(C(C)C(=O)O)cc2F)s1 (stereo unspecified)
9,4.44,CCc1nc(-c2ccc(C(C)C(=O)O)cc2F)sc1C (stereo unspecified)
10,4.39,CCc1cnc(-c2ccc(C(C)C(=O)O)cc2Cl)s1 (stereo unspecified)
11,3.99,CCc1nc(-c2ccc(C(C)C(=O)O)cc2)sc1C (stereo unspecified)
12,3.66,Cc1cnc(-c2ccc(C(C)C(=O)O)cc2Cl)s1 (stereo unspecified)
13,3.39,CC(C(=O)O)c1ccc(-c2nccs2)c(Cl)c1 (stereo unspecified)
14,4.62,CC(C)c1csc(-c2ccc(C(C)C(=O)O)cc2F)n1 (stereo unspecified)
15,3.94,Cc1nc(-c2ccc(C(C)C(=O)O)cc2Cl)sc1C (stereo unspecified)
16,5.36,CCCCc1csc(-c2ccc(C(C)C(=O)O)cc2Cl)n1 (stereo unspecified)
17,4.16,CCc1csc(-c2ccc(C(C)C(=O)O)cc2F)n1 (stereo unspecified)
18,3.14,CC(C(=O)O)c1ccc(-c2nccs2)c(F)c1 (stereo unspecified)
19,4.78,CC(C)c1csc(-c2ccc(C(C)C(=O)O)cc2Cl)n1 (stereo unspecified)
20,4.1,CCc1cnc(-c2ccc(C(C)C(=O)O)cc2F)s1 (stereo unspecified)
21,3.18,CC(C(=O)O)c1ccc(-c2nccs2)c(O)c1 (stereo unspecified)
22,3.65,Cc1csc(-c2ccc(C(C)C(=O)O)cc2Cl)n1 (stereo unspecified)
23,4.28,CCc1csc(-c2ccc(C(C)C(=O)O)cc2Cl)n1 (stereo unspecified)
24,3.06,Cc1cc(C(C)C(=O)O)ccc1-c1nccs1 (stereo unspecified)
25,3.36,Cc1nc(-c2ccc(C(C)C(=O)O)cc2)sc1C (stereo unspecified)

# The remaining lines, values behind:
row,Structure (SMILES),logP
1,Cc1cnc(-c2ccc(C(C)C(=O)O)cc2)s1 (stereo unspecified),3.15
2,C=Cc1csc(-c2ccc(C(C)C(=O)O)cc2)n1 (stereo unspecified),3.62
3,CC(C(=O)O)c1ccc(-c2nc3c(s2)CCCC3)cc1 (stereo unspecified),4.41
4,CC(C(=O)O)c1ccc(-c2nccs2)c(C(F)(F)F)c1 (stereo unspecified),3.06
5,CC(C(=O)O)c1ccc(-c2nc(C(=O)N(C)C)cs2)cc1 (stereo unspecified),2.15
6,CNC(=O)c1csc(-c2ccc(C(C)C(=O)O)cc2)n1 (stereo unspecified),2.45
7,CC(C)c1csc(-c2ccc(C(C)C(=O)O)cc2)n1 (stereo unspecified),4.29
8,C=CCc1csc(-c2ccc(C(C)C(=O)O)cc2)n1 (stereo unspecified),4.11
9,CC(=O)c1csc(-c2ccc(C(C)C(=O)O)cc2)n1 (stereo unspecified),2.65
10,CC(C(=O)O)c1ccc(-c2nccs2)c([N+](=O)[O-])c1 (stereo unspecified),2.06
11,CC(C(=O)O)c1ccc(-c2nccs2)cc1 (stereo unspecified),2.79
12,CCCCc1csc(-c2ccc(C(C)C(=O)O)cc2F)n1 (stereo unspecified),5.24
13,CCc1cnc(-c2ccc(C(C)C(=O)O)cc2)s1 (stereo unspecified),3.72
14,CCc1csc(-c2ccc(C(C)C(=O)O)cc2)n1 (stereo unspecified),3.75
15,CC(C(=O)O)c1ccc(-c2nc(-c3ccccc3)cs2)cc1 (stereo unspecified),4.95
16,Cc1csc(-c2ccc(C(C)C(=O)O)cc2)n1 (stereo unspecified),3.03
17,CC(C(=O)O)c1ccc(-c2nc(CO)cs2)cc1 (stereo unspecified),2.25
18,CCCCc1csc(-c2ccc(C(C)C(=O)O)cc2)n1 (stereo unspecified),4.83
19,CC(C(=O)O)c1ccc(-c2nc(C(F)(F)F)cs2)cc1 (stereo unspecified),3.78
20,CC(C(=O)O)c1ccc(-c2nc(C(N)=O)cs2)cc1 (stereo unspecified),2.17
21,COCc1csc(-c2ccc(C(C)C(=O)O)cc2)n1 (stereo unspecified),2.56
